Columns and labels:
MV4-11 cells = experiment: MV4-11 Cell Cytotoxicity Assay (CellTiter-Blue, 72 h); assay type: cell-based, human; settings: Homo sapiens, MV4-11; MV-4-11 cells
Outline: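 Viability read-out: CellTiter-Blue, 1 h, fluorescence 560/590 nm. Preceded by 72 h exposure (37° C, 5% CO2) to twofold dilution series from 50 μM, triplicate, 0.5% DMSO vehicle, applied 24 h after plating.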

[1] = test system: normal human fibroblast (NHF) cells; experiment: NHF Cell Cytotoxicity Assay (CellTiter-Blue, 72 h), off-target effects; assay type: cell-based; settings: Homo sapiens, Fibroblast; pooled NHF cells
Outline: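 Normal human fibroblasts (1×10^4/well, 10% FBS medium) were treated after 24 h with inhibitor at 0.097656-50 μM for 72 h at 37° C. Viability was read by CellTiter-Blue fluorescence (560/590 nm), normalized to DMSO control, and IC50 obtained from a variable-slope log(inhibitor)-response fit of four replicates.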

glutathione (GSH) = experiment: Reactivity Profiling with Glutathione (GSH), half-life by HPLC; settings: 5 mM glutathione (GSH) in IMDM with 10% FBS

Structure (SMILES)	half-life at 25 μM (glutathione (GSH))	IC50 (MV4-11 cells)	IC50 [1]
O=C(O)c1ccc(N(Cc2cc(C3CC3)cc(N3CCCC3)c2)C(=O)CN(Cc2ccc(F)cc2Cl)S(=O)(=O)c2c(F)c(F)c(F)c(F)c2F)c(C2CC2)c1 [Compound 1200, 4-(2-(N-(2-chloro-4-fluorobenzyl)-(2,3,4,5,6-pentafluorophenyl)sulfon-amido)-N-(3-cyclopropyl-5-(pyrrolidin-1-yl)benzyl)acetamido)-3-cyclopropylbenzoic acid]	9.23 to 1670 h	0.01 to 316 nM	1 to 10000 nM
O=C(O)c1ccc(N(Cc2cc(C3CC3)cc(C3CC3)c2)C(=O)CN(Cc2cnccc2C(F)(F)F)S(=O)(=O)c2c(F)c(F)c(F)c(F)c2F)c(OC2CCCC2)c1 [Compound 1207, 3-(cyclopentyloxy)-4-(N-(3,5-dicyclopropylbenzyl)-2-(N-((4-(trifluoromethyl)pyridin-3-yl)methyl)-(2,3,4,5,6-pentafluoro-phenyl)sulfonamido)acetamido)benzoic acid]	4.12 to 9.23 h	0.01 to 316 nM	10000 to 20000 nM
O=C(O)c1ccc(N(Cc2cc(C3CC3)cc(C3CC3)c2)C(=O)CN(Cc2ccc(F)cc2Cl)S(=O)(=O)c2c(F)c(F)c(F)c(F)c2F)c(OC2CCCC2)c1 [Compound 1208, 4-(2-(N-(2-chloro-4-fluorobenzyl)-(2,3,4,5,6-pentafluorophenyl)sulfon-amido)-N-(3,5-dicyclopropylbenzyl)acetamido)-3-(cyclopentyloxy) benzoic acid]	9.23 to 1670 h	0.01 to 316 nM	10000 to 20000 nM
O=C(O)c1ccc(N(Cc2cc(C3CC3)cc(N3CCCC3)c2)C(=O)CN(Cc2cnccc2C(F)(F)F)S(=O)(=O)c2c(F)c(F)c(F)c(F)c2F)c(OC2CCCC2)c1 [Compound 1209, 3-(cyclopentyloxy)-4-(N-(3-cyclopropyl-5-(pyrrolidin-1-yl)benzyl)-2-(N-((4-(trifluoromethyl)pyridin-3-yl)methyl)-(2,3,4,5,6-pentafluoro-phenyl)sulfonamido)acetamido)benzoic acid]	9.23 to 1670 h	0.01 to 316 nM	10000 to 20000 nM
CN(C)c1cc(C(=O)O)ccc1N(Cc1cc(C2CC2)cc(C2CC2)c1)C(=O)CN(Cc1cnccc1C(F)(F)F)S(=O)(=O)c1c(F)c(F)c(F)c(F)c1F [Compound 1210, 4-(N-(3,5-dicyclopropylbenzyl)-2-(N-((4-(trifluoromethyl)pyridin-3-yl)methyl)-(2,3,4,5,6-pentafluoro-phenyl)sulfonamido)acetamido)-3-(dimethylamino) benzoic acid]	0.00167 to 2.37 h	0.01 to 316 nM	1 to 10000 nM
CC(C)Oc1cc(CN(C(=O)CN(Cc2ccccc2C(F)(F)F)S(=O)(=O)c2c(F)c(F)c(F)c(F)c2F)c2ccc(C(=O)O)cc2OC2CC2)cc(C2CC2)c1 [Compound 1213, 3-cyclopropoxy-4-(N-(3-cyclopropyl-5-isopropoxybenzyl)-2-(N-(2-(trifluoromethyl)benzyl)-(2,3,4,5,6-pentafluoro-phenyl)sulfonamido)acetamido)benzoic acid]	2.37 to 4.12 h	0.01 to 316 nM	10000 to 20000 nM
O=C(O)c1ccc(N(Cc2cc(C3CC3)cc(C3CC3)c2)C(=O)CN(Cc2ncc(F)cc2Cl)S(=O)(=O)c2c(F)c(F)c(F)c(F)c2F)c(OC2CC2)c1 [Compound 1214, 4-(2-(N-((3-chloro-5-fluoropyridin-2-yl)methyl)-(2,3,4,5,6-pentafluorophenyl)sulfon-amido)-N-(3,5-dicyclopropylbenzyl)acetamido)-3-cyclopropoxybenzoic acid]	4.12 to 9.23 h	0.01 to 316 nM	1 to 10000 nM
CN(C)c1cc(C(=O)O)ccc1N(Cc1cc(C2CC2)cc(C2CC2)c1)C(=O)CN(Cc1ccccc1C(F)(F)F)S(=O)(=O)c1c(F)c(F)c(F)c(F)c1F [Compound 1215, 4-(N-(3,5-dicyclopropylbenzyl)-2-(N-(2-(trifluoromethyl)benzyl)-(2,3,4,5,6-pentafluoro-phenyl)sulfonamido)acetamido)-3-(dimethylamino) benzoic acid]	4.12 to 9.23 h	0.01 to 316 nM	20000 to 30000 nM

Further lines, with some results ahead:

half-life at 25 μM (glutathione (GSH))	Structure (SMILES)	IC50 (MV4-11 cells)	IC50 [1]
9.23 to 1670 h	O=C(O)c1ccc(N(Cc2cc(C3CC3)cc(C3CC3)c2)C(=O)CN(Cc2c(F)c(F)c(F)c(F)c2F)S(=O)(=O)c2c(F)c(F)c(F)c(F)c2F)c(C2CC2)c1 [Compound 1196, 3-cyclopropyl-4-(N-(3,5-dicyclopropylbenzyl)-2-(N-((perfluorophenyl)methyl)-(2,3,4,5,6-pentafluoro-phenyl)sulfonamido)acetamido)benzoic acid]	0.01 to 316 nM	1 to 10000 nM
4.12 to 9.23 h	O=C(O)c1ccc(N(Cc2cc(C3CC3)cc(C3CC3)c2)C(=O)CN(Cc2ccc(F)cc2Cl)S(=O)(=O)c2c(F)c(F)c(F)c(F)c2F)c(C2CC2)c1 [Compound 1197, 4-(2-(N-(2-chloro-4-fluorobenzyl)-(2,3,4,5,6-pentafluorophenyl)sulfon-amido)-N-(3,5-dicyclopropylbenzyl)acetamido)-3-cyclopropylbenzoic acid]	0.01 to 316 nM	10000 to 20000 nM
9.23 to 1670 h	O=C(O)c1ccc(N(Cc2cc(C3CC3)cc(N3CCCC3)c2)C(=O)CN(Cc2c(F)cc(F)cc2F)S(=O)(=O)c2c(F)c(F)c(F)c(F)c2F)c(C2CC2)c1 [Compound 1199, 3-cyclopropyl-4-(N-(3-cyclopropyl-5-(pyrrolidin-1-yl)benzyl)-2-(N-(2,4,6-trifluorobenzyl)-(2,3,4,5,6-pentafluoro-phenyl)sulfonamido)acetamido)benzoic acid]	0.01 to 316 nM	1 to 10000 nM
4.12 to 9.23 h	Cc1cc(C(=O)O)cc(C)c1N(Cc1cc(C2CC2)cc(C2CC2)c1)C(=O)CN(Cc1c(F)cc(F)cc1F)S(=O)(=O)c1c(F)c(F)c(F)c(F)c1F [Compound 1203, 4-(N-(3,5-dicyclopropylbenzyl)-2-(N-(2,4,6-trifluorobenzyl)-(2,3,4,5,6-pentafluoro-phenyl)sulfonamido)acetamido)-3,5-dimethylbenzoic acid]	0.01 to 316 nM	1 to 10000 nM
4.12 to 9.23 h	CN(C)c1cc(C(=O)O)ccc1N(Cc1cc(C2CC2)cc(C2CC2)c1)C(=O)CN(Cc1ccc(F)cc1Cl)S(=O)(=O)c1c(F)c(F)c(F)c(F)c1F [Compound 1211, 4-(2-(N-(2-chloro-4-fluorobenzyl)-(2,3,4,5,6-pentafluorophenyl)sulfon-amido)-N-(3,5-dicyclopropylbenzyl)acetamido)-3-(dimethylamino) benzoic acid]	316 to 1000 nM	10000 to 20000 nM
0.00167 to 2.37 h	Cc1cc(C(=O)O)ccc1N(Cc1cc(C2CC2)cc(C2CC2)c1)C(=O)CN(Cc1cnccc1C(F)(F)F)S(=O)(=O)c1c(F)c(F)c(F)c(F)c1F [Compound 1216, 4-(N-(3,5-dicyclopropylbenzyl)-2-(N-((4-(trifluoromethyl)pyridin-3-yl)methyl)-(2,3,4,5,6-pentafluoro-phenyl)sulfonamido)acetamido)-3-methylbenzoic acid]	0.01 to 316 nM	1 to 10000 nM
4.12 to 9.23 h	Cc1cc(C(=O)O)ccc1N(Cc1cc(C2CC2)cc(C2CC2)c1)C(=O)CN(Cc1ccccc1C(F)(F)F)S(=O)(=O)c1c(F)c(F)c(F)c(F)c1F [Compound 1217, 4-(N-(3,5-dicyclopropylbenzyl)-2-(N-(2-(trifluoromethyl)benzyl)-(2,3,4,5,6-pentafluoro-phenyl)sulfonamido)acetamido)-3-methylbenzoic acid]	0.01 to 316 nM	20000 to 30000 nM

— patent publication US20230159445A1, “STAT INHIBITORY COMPOUNDS AND COMPOSITIONS” (JANPIX LIMITED, priority 2020, published 2023)
